One test has as its system anti-HAV-positive sera. Description: EIA for anti-HAV: synthetic peptides adsorbed to wells, reacted with anti-HAV-positive acute sera. The class given is binding, human. The following applies: for Reactivity with acute sera (reactive/tested): experiment 1: sera 1:100, anti-human IgG-HRP, cutoff P/N 3.0; for Reactivity with acute sera (percent of sera reactive): experiment 1: sera 1:100, cutoff P/N 3.0; for P/N for acute sera (mean) / P/N for acute sera (range, in parentheses) / P/N for acute sera (individual values): experiment 1; for P/N for acute sera (mean) / P/N for acute sera (range, in parentheses): OD493 positive/negative ratio of reactive sera; for P/N for acute sera (individual values): single sera listed with semicolon. The text has this: (§1) All anti-HAV-positive and anti-HAV-negative sera were randomly selected from a collection reposited at the Centers for Disease Control and Prevention, Atlanta, Ga. Serum specimens were collected from anti-HAV-positive patients with acute liver disease. Anti-HAV-negative serum specimens were collected from normal blood donors. All sera were initially tested by commercially available kit for the presence of anti-HAV activity (HAVAB and HAVAB-M, Abbott Laboratories, Abbott Park, Ill.)
(§2) Synthetic peptides (110 ml) at a concentration of 10 mg/ml in 0.1 M phosphate-buffered saline (PBS), pH 7.5, were adsorbed to microtiter wells (Immulon II, Dynatech Laboratories, Inc.) at room temperature for 12 h. Sera were diluted in PBS containing 0.1% Tween 20 and 10% normal goat serum (PBS-T) and 100 ml were added to each well, incubated for 60 min at 37E C, and washed with PBS containing Tween-20. […] Two different cutoffs were established for experiments 1 and 2. In experiment 1, the cutoff, expressed as a P/N ratio and equal to 3.0, was statistically established as the mean of negative controls plus at least 3.5 standard deviations (SD) above the mean, where P represents the optical density value at 493 nm (OD493) of anti-HAV-positive specimens and N represents the optical density value of negative controls. In experiment 2, a different cutoff was used to ensure statistical reliability and accurate interpretation of positive results. In this case, in addition to anti-HAV-negative sera, two irrelevant synthetic peptides were used as supplemental negative controls to determine the degree of nonspecific binding of anti-HAV sera to synthetic peptides. One cutoff, expressed as a P/N ratio and equal to 3.0, corresponded to the mean of negative serum controls plus at least 3.5 SD above the mean. A second cutoff was also expressed as a P/N ratio, where P represents the optical density value at 493 nm (OD493) for HAV peptides immunoreacting with anti-HAV-positive specimens and N represents the optical density value obtained with the irrelevant peptides. The second cutoff was equal 2.0 and corresponded to the mean of OD values obtained with the irrelevant peptides plus at least 3.5 SD above the mean. Synthetic peptides were considered immunoreactive with anti-HAV serum specimens only when both cutoffs were satisfied.

A further test relates to anti-HAV-negative sera. As to the kind of experiment: EIA for anti-HAV: synthetic peptides reacted with anti-HAV-negative sera. The class given is binding, human. The following applies: experiment 1: sera 1:100, cutoff P/N 3.0.
Source text: as §1, §2

“And” between values parts separate entries of the source, which are not always exact repeats. Equal entries are not always repeated.

Consider AGDLESSVDDPRSEEDKRFE [YK-1313], for which, in the test with anti-HAV-positive sera, the “immunoreactivity with anti-HAV-positive sera (in words)” value (shortened to “immunoreactivity”) was “broad and strong antigenic reactivity”; the “Reactivity with acute sera (reactive/tested)” value is 18/48; the “Reactivity with acute sera (percent of sera reactive)” value is recorded as 37.5%; the “P/N for acute sera (mean)” value is on record as 15.79. For the same sequence, the “P/N for acute sera (range, in parentheses)” value in the test with anti-HAV-positive sera is given as “(3.0-108.06)”. In the test on anti-HAV-negative sera, the “Reactivity with negative sera (reactive/tested)” value is 3/51.
Take AKKVPETFPELKPGESRHTS [YK-1273]: in the test on anti-HAV-positive sera, the “immunoreactivity” value is “broad and strong antigenic reactivity”; the “Reactivity with acute sera (reactive/tested)” value was 19/46; the “Reactivity with acute sera (percent of sera reactive)” value stood at 41.3%; the “P/N for acute sera (mean)” value came out at 5.15. The “P/N for acute sera (range, in parentheses)” value in the test on anti-HAV-positive sera was “(3.15-8.58)”. Besides, the “Reactivity with negative sera (reactive/tested)” value in the test with anti-HAV-negative sera is 3/48.
CPKDELRPLEKVLESKTRAI [YK-1411]: in the test with anti-HAV-positive sera, the “Reactivity with acute sera (reactive/tested)” value is 8/41; the “Reactivity with acute sera (percent of sera reactive)” value worked out at 19.5%; the “P/N for acute sera (mean)” value came out at 8.18; the “P/N for acute sera (range, in parentheses)” value is recorded as “(4.65-17.65)”. The “Reactivity with negative sera (reactive/tested)” value in the test on anti-HAV-negative sera is listed as 0/27.
With DHMSIYKFMGRSHFLCTFTF [YK-1276], in the test with anti-HAV-positive sera, the “immunoreactivity” value is “broad and strong antigenic reactivity”; the “Reactivity with acute sera (reactive/tested)” value is 17/41; the “Reactivity with acute sera (percent of sera reactive)” value turned out to be 41.5%; the “P/N for acute sera (mean)” value was 4.38. The “P/N for acute sera (range, in parentheses)” value in the test on anti-HAV-positive sera is recorded as “(3.15-5.62)”. Moreover, in the test on anti-HAV-negative sera, the “Reactivity with negative sera (reactive/tested)” value is 0/46.
Turning to DKPGSKKTQGEKFFLIHSAD [YK-1212], in the test with anti-HAV-positive sera, the “Reactivity with acute sera (reactive/tested)” value is given as 3/41; the “Reactivity with acute sera (percent of sera reactive)” value was found to be 7.3%; the “P/N for acute sera (mean)” value is given as 3.5; the “P/N for acute sera (range, in parentheses)” value was “(3.04-3.96)”. For the same sequence, in the test on anti-HAV-negative sera, the “Reactivity with negative sera (reactive/tested)” value is 0/46.
Taken in the same sequence, the figures for DLDFSAFDASLSPFMIREAG [YK-1419] were 5/41, 12.2%, 5.27, “(3.98-8.49)” and 1/27.
In the case of DLEEIAANSKDFPNMSETDL [YK-1328], in the test with anti-HAV-positive sera, the “Reactivity with acute sera (reactive/tested)” value was 6/48; the “Reactivity with acute sera (percent of sera reactive)” value stood at 12.5%; the “P/N for acute sera (mean)” value is given as 4.76; the “P/N for acute sera (range, in parentheses)” value is reported as “(3.74-6.39)”. The “Reactivity with negative sera (reactive/tested)” value in the test on anti-HAV-negative sera is 1/51.
DRTAVTGASYFTSVDQSSVH [YK-1208]: in the test with anti-HAV-positive sera, the “Reactivity with acute sera (reactive/tested)” value is recorded as 5/41; the “Reactivity with acute sera (percent of sera reactive)” value is reported as 12.2%; the “P/N for acute sera (mean)” value is 4.29; the “P/N for acute sera (range, in parentheses)” value was “(3.27-5.54)”. Moreover, the “Reactivity with negative sera (reactive/tested)” value with anti-HAV-negative sera is recorded as 0/46.
For DSAVAEFFQSFPSGEPSNSK [YK-1369], in that order: 24/41, 58.5%, 21.71, “(3.8-42.62)” and 1/27.
DVVLMKVPTIPKFRDITQHF [YK-1382]: in the test on anti-HAV-positive sera, the “Reactivity with acute sera (reactive/tested)” value is 1/41, the “Reactivity with acute sera (percent of sera reactive)” value was 2.4% and the “P/N for acute sera (mean)” value is 8.4. In the test with anti-HAV-negative sera, the “Reactivity with negative sera (reactive/tested)” value was 0/27.
On to EDPVLAKKVPETFPELKPGE [YK-1272], for which, in the test with anti-HAV-positive sera, the “Reactivity with acute sera (reactive/tested)” value is given as 6/41; the “Reactivity with acute sera (percent of sera reactive)” value came out at 14.6%; the “P/N for acute sera (mean)” value was 5.4; the “P/N for acute sera (range, in parentheses)” value is “(4.87-6.12)”. Besides, the “Reactivity with negative sera (reactive/tested)” value in the test with anti-HAV-negative sera is 1/46.
Taken in the same sequence, the figures for EPLRTSVDKPGSKKTQGEKF [YK-1211] were 21/46, 45.7%, 9.33, “(3.37-27.92)” and 0/48.
Taken in the same sequence, the figures for EVGSHQVEPLRTSVDKPGSK [YK-1210] were 15/46, 32.6%, 7.31, “(3.93-20.47)” and 0/48.
As for FDFQVFPTKYHSGRLLFCFV [YK-1249], in the test on anti-HAV-positive sera, the “immunoreactivity” value was “broadly and strongly immunoreactive”; the “Reactivity with acute sera (reactive/tested)” value is recorded as 18/46; the “Reactivity with acute sera (percent of sera reactive)” value was 39.1%; the “P/N for acute sera (mean)” value was determined as 5.03. In addition, in the test with anti-HAV-positive sera, the “P/N for acute sera (range, in parentheses)” value is recorded as “(3.07-7.03)”. Further, in the test on anti-HAV-negative sera, the “Reactivity with negative sera (reactive/tested)” value was 0/48.
As to FNASDSVGQQIKVIPVDPYF [YK-1242], in the test on anti-HAV-positive sera, the “immunoreactivity” value is on record as “Very weakly reactive”, the “Reactivity with acute sera (reactive/tested)” value is on record as 1/41, the “Reactivity with acute sera (percent of sera reactive)” value amounted to 2.4% and the “P/N for acute sera (mean)” value is recorded as 3.1. In addition, in the test on anti-HAV-negative sera, the “Reactivity with negative sera (reactive/tested)” value was 0/46.
With FPELKPGESRHTSDHMSIYK [YK-1274], in the test on anti-HAV-positive sera, the “Reactivity with acute sera (reactive/tested)” value was 9/46; the “Reactivity with acute sera (percent of sera reactive)” value is 19.6%; the “P/N for acute sera (mean)” value turned out to be 5.31; the “P/N for acute sera (range, in parentheses)” value is listed as “(3.0-8.47)”. For the same sequence, the “Reactivity with negative sera (reactive/tested)” value with anti-HAV-negative sera was 1/48.
Take FPTKYHSGRLLFCFVPGNEL [YK-1250]: in the test on anti-HAV-positive sera, the “immunoreactivity” value is “broadly and strongly immunoreactive”; the “Reactivity with acute sera (reactive/tested)” value is given as 17/46; the “Reactivity with acute sera (percent of sera reactive)” value was 37.0%; the “P/N for acute sera (mean)” value is 5.68. In addition, the “P/N for acute sera (range, in parentheses)” value in the test with anti-HAV-positive sera was “(3.4-7.92)”. For the same sequence, the “Reactivity with negative sera (reactive/tested)” value in the test on anti-HAV-negative sera was 0/48.
For FQSFPSGEPSNSKLSGFFQS [YK-1370], in the test with anti-HAV-positive sera, the “Reactivity with acute sera (reactive/tested)” value is 10/41; the “Reactivity with acute sera (percent of sera reactive)” value is given as 24.4%; the “P/N for acute sera (mean)” value is recorded as 8.05; the “P/N for acute sera (range, in parentheses)” value is on record as “(3.05-18.48)”. Besides, the “Reactivity with negative sera (reactive/tested)” value with anti-HAV-negative sera is 1/27.
In the case of FSQAKISLFYTEEHEIMKFS [YK-1319], in the test with anti-HAV-positive sera, the “Reactivity with acute sera (reactive/tested)” value is 13/48; the “Reactivity with acute sera (percent of sera reactive)” value amounted to 27.1%; the “P/N for acute sera (mean)” value is 3.87; the “P/N for acute sera (range, in parentheses)” value was “(3.14-5.01)”. For the same sequence, the “Reactivity with negative sera (reactive/tested)” value in the test with anti-HAV-negative sera is 2/51.
For FTQCSMNVVSKTLFRKSPIY [YK-1395], in the test with anti-HAV-positive sera, the “Reactivity with acute sera (reactive/tested)” value is listed as 8/41; the “Reactivity with acute sera (percent of sera reactive)” value amounted to 19.5%; the “P/N for acute sera (mean)” value was found to be 6.52; the “P/N for acute sera (range, in parentheses)” value is on record as “(3.51-17.52)”. In the test with anti-HAV-negative sera, the “Reactivity with negative sera (reactive/tested)” value is listed as 1/27.
For FWRGDLVFDFQVFPTKYHSG [YK-1248], in the test on anti-HAV-positive sera, the “Reactivity with acute sera (reactive/tested)” value is on record as 3/41; the “Reactivity with acute sera (percent of sera reactive)” value is listed as 7.3%; the “P/N for acute sera (individual values)” value is 3.16 and 3.2. In the test on anti-HAV-negative sera, the “Reactivity with negative sera (reactive/tested)” value is 0/46.
As to GGIKITHFTTWTSIPTLAAQ [YK-1236], in the test with anti-HAV-positive sera, the “Reactivity with acute sera (reactive/tested)” value was 22/46; the “Reactivity with acute sera (percent of sera reactive)” value came to 47.8%; the “P/N for acute sera (mean)” value stood at 4.68; the “P/N for acute sera (range, in parentheses)” value was “(3.1-9.33)”. For the same sequence, the “Reactivity with negative sera (reactive/tested)” value with anti-HAV-negative sera is reported as 0/48.
With GITLKQATTAPCAVMDITGV [YK-1252], in the test on anti-HAV-positive sera, the “Reactivity with acute sera (reactive/tested)” value is 2/41; the “Reactivity with acute sera (percent of sera reactive)” value was 4.9%; the “P/N for acute sera (individual values)” value was 3.67 and 17.95. Moreover, in the test on anti-HAV-negative sera, the “Reactivity with negative sera (reactive/tested)” value is recorded as 0/46.
For the sequence QRLKYAQEELSNEVLPPPRKMKGLF [YK-1665], in the test with anti-HAV-positive sera, the “immunoreactivity” value is “greater immunoreactivity than Peptide No. YK-1317”.
With SAVAEFFQSFPSGEPSNSKLSGFFQ [YK-1832], the “percent of (IgM) anti-HAV-positive sera immunoreactive with peptide” value in the test on anti-HAV-positive sera is recorded as “about 86.0%”.
Regarding WLNPKKINLADRMLGLSGVQEIKEQ [YK-1757], in the test on anti-HAV-positive sera, the “immunoreactivity” value is given as “very strong antigenically reactive”.

The record behind these values is patent publication US6838237B2, “Antigenically reactive regions of the hepatitis a virus polyprotein” (The United States of America as represented by the …, priority 1996, dated 2005).
